Biological target: T1, histamine H4 receptor (Homo sapiens, UniProt Q9H3N8)
T1 construct: expressed in transfected cells; host or cells: HEK293SFM cells (membrane preparation)
Assay: Inhibition of histamine H4 receptor (Table A1; H4 membrane binding assay)
Settings: for IC50: histamine H4 receptor, "> a" = exceeds experiment limit
Procedure: Recombinant HEK293SFM cells expressing human H1, H2, H3, H4 or mouse H4 were harvested (Packard Filtermate Harvester) in ice-cold Tris-HCl, (50 mM, pH 7.5, Sigma) with protease inhibitors (Roche) and homogenized with a Polytron homogenizer. The homogenate was centrifuged for 5 minutes at 1000 g to remove nuclei and unbroken cells. The supernatant was centrifuged at 50000 g for 30 minutes, and the resulting pellet was re-suspended in ice-cold Tris-HCl (50 mM, pH 7.5). […] Nonspecific binding was determined by inclusion of 1000× unlabeled ligands. The bound radioactivity was separated by filtration through polyethyleneimine-treated GF/B filters (Perkin Elmer). The filters were washed eight times with ice-cold Tris-HCl (50 mM, pH 7.5), and radioactivity retained on the filters was measured by liquid scintillation counting. The binding data were evaluated with Prism. […]

| SMILES | inhibition at 1 µM [%] | IC50 [nM] |
| --- | --- | --- |
| CN1CCN(c2cc(N3CCc4ccc(-c5cnc(N6CCN(C(=O)OC(C)(C)C)CC6)nc5)cc4C3)nc(N)n2)CC1 [Example 8, tert-Butyl 4-(5-{2-[2-amino-6-(4-methylpiperazin-1-yl)pyrimidin-4-yl]-1,2,3,4-tetrahydroisoquinolin-7-yl}pyrimidin-2-yl)piperazine-1-carboxylate] | 35 | > 1000 |
| CCOC(=O)N1CCN(c2ccc3c(c2)CN(c2cc(N4CCN(C)CC4)nc(N)n2)CC3)CC1 [Example 30, Ethyl 4-{2-[2-amino-6-(4-methylpiperazin-1-yl)pyrimidin-4-yl]-1,2,3,4-tetrahydroisoquinolin-7-yl}piperazine-1-carboxylate] |  | 282 |
| CN1CCN(c2cc(N3CCc4ccc(-c5ccc(C(=O)N[C@H]6CC[C@H](O)CC6)nc5)cc4C3)nc(N)n2)CC1 [Example 20, 5-{2-[2-Amino-6-(4-methylpiperazin-1-yl)pyrimidin-4-yl]-1,2,3,4-tetrahydroisoquinolin-7-yl}-N-(trans-4-hydroxycyclohexyl)pyridine-2-carboxamide] |  | 113 |
| CC1Cc2ccc(-c3cnn(C)c3)cc2CN1c1cc(N2CCCC(N)C2)nc(N)n1 (stereo in doubt) [Example 119, 4-[(3S)-3-Aminopiperidin-1-yl]-6-[3-methyl-7-(1-methyl-1H-pyrazol-4-yl)-3,4-dihydroisoquinolin-2(1H)-yl]pyrimidin-2-amine] |  | 91 |
| CC1Cc2ccc(-c3cncc(C(=O)N(C)C)c3)cc2CN1c1cc(N2CCN(C)CC2)nc(N)n1 (single isomer, unassigned) [Example 74, 5-{2-[2-Amino-6-(4-methylpiperazin-1-yl)pyrimidin-4-yl]-3-methyl-1,2,3,4-tetrahydroisoquinolin-7-yl}-N,N-dimethylnicotinamide] |  | 148 |
| CN1CCN(c2cc(N3CCc4ccc(C(=O)N5CCCC5)cc4C3)nc(N)n2)CC1 [Example 29, 4-(4-Methylpiperazin-1-yl)-6-[7-(pyrrolidin-1-ylcarbonyl)-3,4-dihydroisoquinolin-2 (1H)-yl]pyrimidin-2-amine] |  | 229 |
| CC1Cc2ccc(-c3cnc(C(=O)N4CC(O)C4)nc3)cc2CN1c1cc(N2CCN(C)CC2)nc(N)n1 (single isomer, unassigned) [Example 78, 1-[(5-{2-[2-Amino-6-(4-methylpiperazin-1-yl)pyrimidin-4-yl]-3-methyl-1,2,3,4-tetrahydroisoquinolin-7-yl}pyrimidin-2-yl)carbonyl]azetidin-3-ol] |  | 135 |
| CC1Cc2ccc(-c3cnn(CC(N)=O)c3)cc2CN1c1cc(N2CCN(C)CC2)nc(N)n1 (single isomer, unassigned) [Example 113, 2-(4-{2-[2-Amino-6-(4-methylpiperazin-1-yl)pyrimidin-4-yl]-3-methyl-1,2,3,4-tetrahydroisoquinolin-7-yl}-1H-pyrazol-1-yl)acetamide] |  | 72 |
| CC1Cc2ccc(-c3ccc(C(=O)N4CCCC4)nc3)cc2CN1c1cc(N2CCN(C)CC2)nc(N)n1 (single isomer, unassigned) [Example 55A] |  | 95 |
| CN1CCN(c2cc(N3CCc4ccc(N5CCC(C#N)CC5)cc4C3)nc(N)n2)CC1 [Example 36, 1-{2-[2-Amino-6-(4-methylpiperazin-1-yl)pyrimidin-4-yl]-1,2,3,4-tetrahydroisoquinolin-7-yl}piperidine-4-carbonitrile] |  | 393 |

Now those with a lower IC50, led by results:

| inhibition at 1 µM [%] | IC50 [nM] | SMILES |
| --- | --- | --- |
|  | 49 | CC1Cc2ccc(-c3ccnc(C(=O)N4CCC4)c3)cc2CN1c1cc(N2CCN(C)CC2)nc(N)n1 (single isomer, unassigned) [Example 62B, 4-[7-[2-(azetidin-1-ylcarbonyl)pyridin-4-yl]-3-methyl-3,4-dihydroisoquinolin-2(1H)-yl]-6-(4-methylpiperazin-1-yl)pyrimidin-2-amine] |
|  | 46 | CC1Cc2ccc(-c3cnn(C4CCOC4)c3)cc2CN1c1cc(N2CCN(C)CC2)nc(N)n1 (single isomer, unassigned) [Example 108, 4-(4-Methylpiperazin-1-yl)-6-[3-methyl-7-[1-(tetrahydrofuran-3-yl)-1H-pyrazol-4-yl]-3,4-dihydroisoquinolin-2(1H)-yl]pyrimidin-2-amine] |
|  | 46 | CC1Cc2ccc(-c3ccc(C(=O)N(C)CCN(C)C)nc3)cc2CN1c1cc(N2CCN(C)CC2)nc(N)n1 (single isomer, unassigned) [Example 52A, 5-{2-[2-amino-6-(4-methylpiperazin-1-yl)pyrimidin-4-yl]-3-methyl-1,2,3,4-tetrahydroisoquinolin-7-yl}-N-[2-(dimethylamino)ethyl]-N-methylpyridine-2-carboxoynide] |
|  | 42 | CCn1cc(-c2ccc3c(c2)CN(c2cc(N4CCN(C)CC4)nc(N)n2)C(C)C3)cn1 (single isomer, unassigned) [Example 107, 4-[7-(1-Ethyl-1H-pyrazol-4-yl)-3-methyl-3,4-dihydroisoquinolin-2(1H)-yl]-6-(4-methylpiperazin-1-yl)pyrimidin-2-amine] |
|  | 40 | CC1Cc2ccc(-c3cnn(C)c3)cc2CN1c1cc(N2CCC(N)CC2)nc(N)n1 (stereo not shown) [Example 120, 4-(4-Aminopiperidin-1-yl)-6-[3-methyl-7-(1-methyl-1H-pyrazol-4-yl)-3,4-dihydroisoquinolin-2 (1H)-yl]pyrimidin-2-amine] |
|  | 35 | CC1Cc2ccc(-c3cnn(C4CCOCC4)c3)cc2CN1c1cc(N2CCN(C)CC2)nc(N)n1 (single isomer, unassigned) [Example 95A, 4-(4-methylpiperazin-1-yl)-6-[3-methyl-7-[1-(tetrahydro-2H-pyran-4-yl)-1H-pyrazol-4-yl]-3,4-dihydroisoquinolin-2(1H)-yl]pyrimidin-2-amine] |
|  | 35 | CC1Cc2ccc(-c3cnn(CCO)c3)cc2CN1c1cc(N2CCN(C)CC2)nc(N)n1 (single isomer, unassigned) [Example 110, 2-(4-{2-[2-Amino-6-(4-methylpiperazin-1-yl)pyrimidin-4-yl]-3-methyl-1,2,3,4-tetrahydroisoquinolin-7-yl}-1H-pyrazol-1-yl)ethanol] |
|  | 34 | CC(C#N)Cn1cc(-c2ccc3c(c2)CN(c2cc(N4CCN(C)CC4)nc(N)n2)C(C)C3)cn1 (single isomer, unassigned) [Example 101, 3-(4-{2-[2-Amino-6-(4-methylpiperazin-1-yl)pyrimidin-4-yl]-3-methyl-1,2,3,4-tetrahydroisoquinolin-7-yl}-1H-pyrazol-1-yl)-2-methylpropanenitrile] |
|  | 30 | CC1Cc2ccc(-c3ccc4c(c3)NC(=O)CO4)cc2CN1c1cc(N2CCN(C)CC2)nc(N)n1 (stereo not shown) [Example 131, 6-{2-[2-amino-6-(4-methylpiperazin-1-yl)pyrimidin-4-yl]-3-methyl-1,2,3,4-tetrahydroisoquinolin-7-yl}-2H-1,4-benzoxazin-3(4H)-one] |
|  | 30 | CC1Cc2ccc(-c3cc(C(=O)N4CCC(N(C)C)C4)n(C)c3)cc2CN1c1cc(N2CCN(C)CC2)nc(N)n1 (single isomer, unassigned) [Example 94, 4-[7-(5-{[3-(Dimethylamino)pyrrolidin-1-yl]carbonyl}-1-methyl-1H-pyrrol-3-yl)-3-methyl-3,4-dihydroisoquinolin-2(1H)-yl]-6-(4-methylpiperazin-1-yl)pyrimidin-2-amine] |
|  | 20 | Cc1nc(-c2ccc3c(c2)CN(c2cc(N4CCN(C)CC4)nc(N)n2)C(C)C3)cs1 (stereo not shown) [Example 116, 4-[3-Methyl-7-(2-methyl-1,3-thiazol-4-yl)-3,4-dihydroisoquinolin-2(1H)-yl]-6-(4-methylpiperazin-1-yl)pyrimidin-2-amine] |

Reference: patent US20130244999A1, “Substituted Heterocyclic Compounds” (Incyte Corporation, priority 2008, published 2013)
